Data from US11708562B2, “Differentiation of human embryonic stem cells” (Janssen Biotech, Inc., priority 2006, dated 2023).

Test system: H9P33, H9P44 and H9P48 cells
Assay: Microarray analysis of definitive endoderm on MEFs vs MATRIGEL +/- Wnt-3A (Table VI)
Conditions: log format
Experimental: Controls for each group included cells plated on […]-coated dishes and cultured in MEF-conditioned medium or cells plated on MEFs and cultured in ES medium. All groups contained three biological replicates and each biological replicate was repeated on two separate gene chips.
Sample preparation, hybridization, and image analysis were performed according to the Affymetrix Human Genome U133 Plus 2.0 Array. Following normalization and a log transformation, data analysis was performed using OmniViz® software (MA) and […] (VizXLabs, WA). Significant differences in gene expression between the samples were evaluated using analysis of variance and an F-test with adjusted P-value (Benjamini and Hochberg correction) of ≤0.05. Only genes with a present call in at least one group were included in the analysis.

[1] = DE treatment in low serum + AA on MATRIGEL
[2] = DE treatment in low serum + AA on MEFS

Substance: Activin A: a member of the TGFβ superfamily; growth factor (R&D Systems) used to differentiate human embryonic stem cells
- mean normalized intensity: Homo sapiens chorionic somatomammotropin hormone 2 (CSH2), transcript variant 1, mRNA. [1]: 1.124
- mean normalized intensity: Homo sapiens chorionic somatomammotropin hormone 2 (CSH2), transcript variant 4, mRNA. [1]: 0.8122
- mean normalized intensity: Homo sapiens galanin receptor 1 (GALR1), mRNA. [1]: 2.507
- mean normalized intensity: Homo sapiens growth hormone 2 (GH2), transcript variant 2, mRNA. [1]: 0.9226
- mean normalized intensity: Homo sapiens hypothetical protein FLJ20075 (FLJ20075), mRNA. [1]: −0.3592
- mean normalized intensity: Homo sapiens mRNA for SCCA2b, complete cds. [1]: 3.329
- mean normalized intensity: Homo sapiens mRNA; cDNA DKFZp586P1124 (from clone DKFZp586P1124) [1]: 0.4856
- mean normalized intensity: Homo sapiens methyl-CpG binding protein MBD2 (MBD2) mRNA, complete cds. [1]: 0.4906
- mean normalized intensity: Homo sapiens tachykinin, precursor 1 (TAC1), transcript variant beta, mRNA. [1]: 2.773
- mean normalized intensity: Homo sapiens testis expressed sequence 14 (TEX14), mRNA. [1]: 3.512
- mean normalized intensity: Homo sapiens, Similar to LIM homeobox protein 8, clone IMAGE: 4839343, mRNA. [1]: −0.06288
- mean normalized intensity: Homo sapiens, Similar to cadherin 6, type 2, K-cadherin (fetal kidney), clone MGC: 1470, mRNA, complete cds. [1]: 2.547
- mean normalized intensity: Homo sapiens, Similar to hypothetical protein FLJ10058, clone MGC: 34305 IMAGE: 5167647, mRNA, complete cds. [1]: 1.698
- mean normalized intensity: Homo sapiens, Similar to hypothetical protein FLJ32001, clone MGC: 39559 IMAGE: 4828136, mRNA, complete cds. [1]: 0.5207
- mean normalized intensity: Homo sapiens, clone IMAGE: 4067166, mRNA [1]: 0.1959
- mean normalized intensity: Homo sapiens, clone IMAGE: 4828836, mRNA. [1]: 0.9729
- mean normalized intensity: Homo sapiens, serine (or cysteine) proteinase inhibitor, clade B (ovalbumin), member 3, clone MGC: 12244, mRNA, complete cds. [1]: 1.969
- mean normalized intensity: Human mRNA upregulated during camptothecin-induced apoptosis of U937 cells. [1]: 0.4945
- mean normalized intensity: Human platelet-derived growth factor alpha-receptor (PDGFRA) mRNA, exons 13-16 [1]: 2.445
- mean normalized intensity: KIAA1151 protein [1]: 0.6425
- mean normalized intensity: caldesmon 1 [1]: 7.092
- mean normalized intensity: nuclear receptor subfamily 1, group I, member 3 [1]: 1.779
- mean normalized intensity: ESTs (DE treatment in low serum + AA on MATRIGEL, gene line r2006): 1.5857
- mean normalized intensity: ESTs (DE treatment in low serum + AA on MATRIGEL, gene line r2025): 1.531
- mean normalized intensity: ESTs (DE treatment in low serum + AA on MATRIGEL, gene line r2032): 0.1336
- mean normalized intensity: paternally expressed 3 (DE treatment in low serum + AA on MATRIGEL, gene line r2033): 2.876
- mean normalized intensity: ESTs (DE treatment in low serum + AA on MATRIGEL, gene line r2038): 3.262
- mean normalized intensity: paternally expressed 3 (DE treatment in low serum + AA on MATRIGEL, gene line r2093): 2.874
- mean normalized intensity: ESTs (DE treatment in low serum + AA on MATRIGEL, gene line r2134): −1.3795
- mean normalized intensity: ESTs (DE treatment in low serum + AA on MATRIGEL, gene line r2148): 4.454
- mean normalized intensity: DKFZP566K1924 protein [2]: 1.391
- mean normalized intensity: H. sapiens mRNA for B-HLH DNA binding protein. [2]: 3.451
- mean normalized intensity: Homo sapiens BCL2-interacting killer (apoptosis-inducing) (BIK), mRNA. [2]: 3.562
- mean normalized intensity: Homo sapiens Charot-Leyden crystal protein (CLC), mRNA. [2]: 2.1096
- mean normalized intensity: Homo sapiens HES-related repressor protein 1 HERP1 mRNA, complete cds. [2]: 2.406
- mean normalized intensity: Homo sapiens HSPC156 protein (HSPC156), mRNA. [2]: 1.296
- mean normalized intensity: Homo sapiens KIAA0469 gene product (KIAA0469), mRNA. [2]: 2.565
- mean normalized intensity: Homo sapiens PNAS-123 mRNA, complete cds [2]: 1.847
- mean normalized intensity: Homo sapiens Wilms tumor 1 (WT1), transcript variant D, mRNA. [2]: −2.435
- mean normalized intensity: Homo sapiens cDNA FLJ11398 fis, clone HEMBA1000637. [2]: 1.849
- mean normalized intensity: Homo sapiens cDNA: FLJ22547 fis, clone HSI00356 [2]: 2.095
- mean normalized intensity: Homo sapiens cadherin 6, type 2, K-cadherin (fetal kidney) (CDH6), mRNA. [2]: −0.8763
- mean normalized intensity: Homo sapiens chorionic somatomammotropin hormone 2 (CSH2), transcript variant 1, mRNA. [2]: 2.616
- mean normalized intensity: Homo sapiens chorionic somatomammotropin hormone 2 (CSH2), transcript variant 4, mRNA. [2]: 2.218
- mean normalized intensity: Homo sapiens galanin receptor 1 (GALR1), mRNA. [2]: −0.338
- mean normalized intensity: Homo sapiens growth hormone 2 (GH2), transcript variant 2, mRNA. [2]: 1.4679
- mean normalized intensity: Homo sapiens hypothetical protein FLJ20075 (FLJ20075), mRNA. [2]: −0.06528
- mean normalized intensity: Homo sapiens mRNA for SCCA2b, complete cds. [2]: 0.568
- mean normalized intensity: Homo sapiens mRNA; cDNA DKFZp586P1124 (from clone DKFZp586P1124) [2]: −3.094
- mean normalized intensity: Homo sapiens methyl-CpG binding protein MBD2 (MBD2) mRNA, complete cds. [2]: −1.702
- mean normalized intensity: Homo sapiens tachykinin, precursor 1 (TAC1), transcript variant beta, mRNA. [2]: 1.483
- mean normalized intensity: Homo sapiens testis expressed sequence 14 (TEX14), mRNA. [2]: −1.3824
- mean normalized intensity: Homo sapiens, Similar to LIM homeobox protein 8, clone IMAGE: 4839343, mRNA. [2]: −1.11
- mean normalized intensity: Homo sapiens, Similar to cadherin 6, type 2, K-cadherin (fetal kidney), clone MGC: 1470, mRNA, complete cds. [2]: 2.134
- mean normalized intensity: Homo sapiens, Similar to hypothetical protein FLJ10058, clone MGC: 34305 IMAGE: 5167647, mRNA, complete cds. [2]: 0.2156
- mean normalized intensity: Homo sapiens, Similar to hypothetical protein FLJ32001, clone MGC: 39559 IMAGE: 4828136, mRNA, complete cds. [2]: 1.269
- mean normalized intensity: Homo sapiens, clone IMAGE: 4067166, mRNA [2]: 0.277
- mean normalized intensity: Homo sapiens, clone IMAGE: 4828836, mRNA. [2]: −1.484
- mean normalized intensity: Homo sapiens, serine (or cysteine) proteinase inhibitor, clade B (ovalbumin), member 3, clone MGC: 12244, mRNA, complete cds. [2]: −1.566
- mean normalized intensity: Human mRNA upregulated during camptothecin-induced apoptosis of U937 cells. [2]: −0.1892
- mean normalized intensity: Human platelet-derived growth factor alpha-receptor (PDGFRA) mRNA, exons 13-16 [2]: 2.905
- mean normalized intensity: KIAA1151 protein [2]: 1.009
- mean normalized intensity: caldesmon 1 [2]: 5.634
- mean normalized intensity: nuclear receptor subfamily 1, group I, member 3 [2]: −0.1968
- mean normalized intensity: ESTs (DE treatment in low serum + AA on MEFS, gene line r2006): −1.3
- mean normalized intensity: ESTs (DE treatment in low serum + AA on MEFS, gene line r2025): 1.373
- mean normalized intensity: ESTs (DE treatment in low serum + AA on MEFS, gene line r2032): −1.566
- mean normalized intensity: paternally expressed 3 (DE treatment in low serum + AA on MEFS, gene line r2033): −0.0118
- mean normalized intensity: ESTs (DE treatment in low serum + AA on MEFS, gene line r2038): 1.5682
- mean normalized intensity: paternally expressed 3 (DE treatment in low serum + AA on MEFS, gene line r2093): −3.492
- mean normalized intensity: ESTs (DE treatment in low serum + AA on MEFS, gene line r2134): −0.9461
- mean normalized intensity: ESTs (DE treatment in low serum + AA on MEFS, gene line r2148): 5.334
